One experiment relates to NCI-H460. Nature of the experiment: Cytotoxicity against human NCI-H460 cells assessed as cell viability incubated for 48 hrs by MTT assay. Type of experiment: functional, cell-based. Conditions: for IC50: NCI-H460, 48 h.
A further experiment concerns A549. Description: Cytotoxicity against human A549 cells assessed as cell viability incubated for 48 hrs by MTT assay. The format is functional, cell-based. The conditions noted are these: A549, 48 h. For orientation: Tetrazolium dyes change colour on reduction, which living cells bring about.

Molecules are shown by their SMILES. The source made the active and inactive calls. The rule behind the calls is not given here.

The record followed here is ChEMBL document CHEMBL6121052, “Design of ROS-Triggered Sesquiterpene Lactone SC Prodrugs as TrxR1 Covalent Inhibitors for the Treatment of Non-Small Cell Lung Cancer” (J Med Chem, 2025).

One may read the IC50 as the concentration that inhibits the measured activity by half.

On to `C/C1=C\[C@@H](OC(=O)C2CC2)[C@H]2[C@H](CC3=C[C@H](C1)OC3=O)OC(=O)[C@@H]2CSCCCCCCCCSC[C@H]1C(=O)O[C@H]2CC3=C[C@H](C/C(C)=C/[C@@H](OC(=O)C4CC4)[C@@H]21)OC3=O`, for which the IC50 in the experiment on NCI-H460 and with A549 was > 25 µM throughout. For `C/C1=C\[C@@H](OC(=O)c2ccccc2)[C@H]2[C@H](CC3=C[C@H](C1)OC3=O)OC(=O)[C@@H]2CSc1cccc(Br)c1`, the IC50 with NCI-H460 was > 25 µM; in the experiment with A549 it was 3.66 µM. With `C/C1=C\[C@@H](OC(=O)NCc2cccs2)[C@H]2[C@H](CC3=C[C@H](C1)OC3=O)OC(=O)[C@@H]2CSc1ccc(F)cc1`, in the experiment on A549, the IC50 was 5.51 µM. As for `CCCCCSC[C@H]1C(=O)O[C@H]2CC3=C[C@H](C/C(C)=C/[C@@H](OC(=O)c4ccccc4)[C@@H]21)OC3=O`, the IC50 in the experiment on NCI-H460 and with A549 was > 25 µM throughout. Turning to `CCCNC(=S)SC[C@H]1C(=O)O[C@H]2CC3=C[C@H](C/C(C)=C/[C@@H](OC(=O)C4CC4)[C@@H]21)OC3=O`, the IC50 was found to be 24.9 µM in the experiment on NCI-H460 and 2.85 µM in the experiment with A549. For `C/C1=C\[C@@H](OC(=O)c2ccccc2)[C@H]2[C@H](CC3=C[C@H](C1)OC3=O)OC(=O)[C@@H]2CSCCCCCCCCCCSC[C@H]1C(=O)O[C@H]2CC3=C[C@H](C/C(C)=C/[C@@H](OC(=O)c4ccccc4)[C@@H]21)OC3=O` the same measures were > 25 µM and > 25 µM. On to `C/C1=C\[C@@H](OC(=O)C2CC2)[C@H]2[C@H](CC3=C[C@H](C1)OC3=O)OC(=O)[C@@H]2CSC(=S)NCc1cccnc1`, for which the IC50 came out at 15.3 µM in the experiment with NCI-H460 and 1.41 µM in the experiment on A549. For `C/C1=C\[C@@H](OC(=O)c2ccccc2)[C@H]2[C@H](CC3=C[C@H](C1)OC3=O)OC(=O)[C@@H]2CSc1nc2ccccc2s1` the same measures were > 25 µM and > 25 µM. For the compound `C/C1=C\[C@@H](OC(=O)c2ccccc2)[C@H]2[C@H](CC3=C[C@H](C1)OC3=O)OC(=O)[C@@H]2CSC1CCCCC1`, the IC50 in the experiment with NCI-H460 and in the experiment with A549 was > 25 µM in each case. On to `C/C1=C\[C@@H](OC(=O)OCc2cccs2)[C@H]2[C@H](CC3=C[C@H](C1)OC3=O)OC(=O)[C@@H]2CSc1ccc(F)cc1`, for which, in the experiment with A549, the IC50 was 22.6 µM. Take `C/C1=C\[C@@H](OC(=O)C2CC2)[C@H]2[C@H](CC3=C[C@H](C1)OC3=O)OC(=O)[C@@H]2CSc1cccc(Br)c1`: the IC50 in the experiment with NCI-H460 is > 25 µM; in the experiment with A549 it was 5.77 µM. For `C/C1=C\[C@@H](OC(=O)/C=C/c2ccccc2)[C@H]2[C@H](CC3=C[C@H](C1)OC3=O)OC(=O)[C@@H]2CSc1ccc(SC[C@H]2C(=O)O[C@H]3CC4=C[C@H](C/C(C)=C/[C@@H](OC(=O)/C=C/c5ccccc5)[C@@H]32)OC4=O)cc1` the same measures were > 25 µM and > 25 µM.

For `C/C1=C\[C@@H](OC(=O)NC2CC2)[C@H]2[C@H](CC3=C[C@H](C1)OC3=O)OC(=O)[C@@H]2CSc1ccc(F)cc1`, in the experiment with A549, the IC50 was determined as 15.9 µM. With `C/C1=C\[C@@H](OC(=O)C2CC2)[C@H]2[C@H](CC3=C[C@H](C1)OC3=O)OC(=O)[C@@H]2CSc1ccc([N+](=O)[O-])cc1`, the IC50 in the experiment with NCI-H460 was > 25 µM; with A549, 5.12 µM. Turning to `C/C1=C\[C@@H](O)[C@H]2[C@H](CC3=C[C@H](C1)OC3=O)OC(=O)[C@@H]2CSc1cccc(F)c1`, the IC50 in the experiment on NCI-H460 and in the experiment on A549 was > 25 µM throughout. With `C/C1=C\[C@@H](OC(=O)NCc2cccs2)[C@H]2[C@H](CC3=C[C@H](C1)OC3=O)OC(=O)[C@@H]2CSC(=S)N(C)C`, in the experiment with A549, the IC50 amounted to 2.8 µM. Take `C/C1=C\[C@@H](OC(=O)NC2CC2)[C@H]2[C@H](CC3=C[C@H](C1)OC3=O)OC(=O)[C@@H]2CSC(=S)N(C)C`: in the experiment with A549, the IC50 was 2.08 µM.

Turning to `C/C1=C\[C@@H](OC(=O)c2ccccc2)[C@H]2[C@H](CC3=C[C@H](C1)OC3=O)OC(=O)[C@@H]2CSCCCCCCSC[C@H]1C(=O)O[C@H]2CC3=C[C@H](C/C(C)=C/[C@@H](OC(=O)c4ccccc4)[C@@H]21)OC3=O`, the IC50 in the experiment on NCI-H460 and in the experiment on A549 was > 25 µM each time.

For the compound `C/C1=C\[C@@H](OC(=O)/C=C/c2ccccc2)[C@H]2[C@H](CC3=C[C@H](C1)OC3=O)OC(=O)[C@@H]2CSc1cccc(Br)c1`, the IC50 in the experiment on NCI-H460 is > 25 µM; in the experiment on A549 it was 8.61 µM. As to `C/C1=C\[C@@H](OC(=O)OC2CC2)[C@H]2[C@H](CC3=C[C@H](C1)OC3=O)OC(=O)[C@@H]2CSC(=S)N(C)C`, the IC50 in the experiment on A549 came to 1.29 µM.

`CCCNC(=O)O[C@@H]1/C=C(\C)C[C@H]2C=C(C[C@@H]3OC(=O)[C@H](CSc4ccc(F)cc4)[C@H]31)C(=O)O2`: the IC50 in the experiment on A549 worked out at 10.5 µM.

Consider `C/C1=C\[C@@H](O)[C@H]2[C@H](CC3=C[C@H](C1)OC3=O)OC(=O)[C@@H]2CSc1cccc(Br)c1`, for which the IC50 in the experiment on NCI-H460 and with A549 was > 25 µM in each case.

As to `C/C1=C\[C@@H](OC(=O)NCc2cccnc2)[C@H]2[C@H](CC3=C[C@H](C1)OC3=O)OC(=O)[C@@H]2CSc1ccc(F)cc1`, in the experiment on A549, the IC50 is 19.3 µM. For `C/C1=C\[C@@H](O)[C@H]2[C@H](CC3=C[C@H](C1)OC3=O)OC(=O)[C@@H]2CSc1nc2ccccc2s1`, the IC50 in the experiment with NCI-H460 and with A549 was > 25 µM each time. As for `C/C1=C\[C@@H](OC(=O)C2CC2)[C@H]2[C@H](CC3=C[C@H](C1)OC3=O)OC(=O)[C@@H]2CSC(=S)NCc1ccc(F)cc1`, the values for the IC50 in the experiment with NCI-H460 and with A549 were 15.2 µM and 1.79 µM, respectively. On to `C/C1=C\[C@@H](OC(=O)C2CC2)[C@H]2[C@H](CC3=C[C@H](C1)OC3=O)OC(=O)[C@@H]2CSCCCCCCSC[C@H]1C(=O)O[C@H]2CC3=C[C@H](C/C(C)=C/[C@@H](OC(=O)C4CC4)[C@@H]21)OC3=O`, for which the IC50 in the experiment on NCI-H460 and in the experiment on A549 was > 25 µM in each case.

For `C/C1=C\[C@@H](O)[C@H]2[C@H](CC3=C[C@H](C1)OC3=O)OC(=O)[C@@H]2CSc1ccc(F)cc1`, the IC50 in the experiment with NCI-H460 and in the experiment with A549 was > 25 µM each time. On to `C/C1=C\[C@@H](OC(=O)c2ccccc2)[C@H]2[C@H](CC3=C[C@H](C1)OC3=O)OC(=O)[C@@H]2CSCC(C)C`, for which the half-maximal inhibitory concentration (IC50) with NCI-H460 and in the experiment with A549 was > 25 µM in each case.

In the case of `C/C1=C\[C@@H](OC(=O)/C=C/c2ccccc2)[C@H]2[C@H](CC3=C[C@H](C1)OC3=O)OC(=O)[C@@H]2CSCC(C)C`, the IC50 in the experiment with NCI-H460 and in the experiment on A549 was > 25 µM each time. In the case of `C/C1=C\[C@@H](O)[C@H]2[C@H](CC3=C[C@H](C1)OC3=O)OC(=O)[C@@H]2CSC1CCCCC1`, the IC50 in the experiment on NCI-H460 and in the experiment with A549 was > 25 µM each time. Turning to `C/C1=C\[C@@H](OC(=O)c2ccccc2)[C@H]2[C@H](CC3=C[C@H](C1)OC3=O)OC(=O)[C@@H]2CSc1ccc(SC[C@H]2C(=O)O[C@H]3CC4=C[C@H](C/C(C)=C/[C@@H](OC(=O)c5ccccc5)[C@@H]32)OC4=O)cc1`, the IC50 with NCI-H460 and in the experiment with A549 was > 25 µM in each case. As to `C/C1=C\[C@@H](O)[C@H]2[C@H](CC3=C[C@H](C1)OC3=O)OC(=O)[C@@H]2CSCCCCCCSC[C@H]1C(=O)O[C@H]2CC3=C[C@H](C/C(C)=C/[C@@H](O)[C@@H]21)OC3=O`, the IC50 in the experiment with NCI-H460 is > 25 µM; in the experiment with A549, 21.9 µM. With `C/C1=C\[C@@H](OC(=O)C2CC2)[C@H]2[C@H](CC3=C[C@H](C1)OC3=O)OC(=O)[C@@H]2CSCC(C)C`, the half-inhibitory concentration (IC50) with NCI-H460 and in the experiment with A549 was > 25 µM in each case.

In the case of `C/C1=C\[C@@H](OC(=O)C2CC2)[C@H]2[C@H](CC3=C[C@H](C1)OC3=O)OC(=O)[C@@H]2CSC(=S)NC1CCCC1`, the IC50 in the experiment with NCI-H460 is > 25 µM; with A549 it was 2.63 µM. `C/C1=C\[C@@H](OC(=O)OCc2ccc(F)cc2)[C@H]2[C@H](CC3=C[C@H](C1)OC3=O)OC(=O)[C@@H]2CSc1ccc(F)cc1`: the IC50 in the experiment with A549 came out at 7.29 µM. Turning to `C/C1=C\[C@@H](OC(=O)OCc2cccs2)[C@H]2[C@H](CC3=C[C@H](C1)OC3=O)OC(=O)[C@@H]2CSC(=S)N(C)C`, the IC50 in the experiment on A549 is 2.56 µM.

In the case of `C/C1=C\[C@@H](OC(=O)SCC(C)C)[C@H]2[C@H](CC3=C[C@H](C1)OC3=O)OC(=O)[C@@H]2CSC(=S)N(C)C`, in the experiment with A549, the IC50 came out at 1.37 µM. In the case of `C/C1=C\[C@@H](OC(=O)SC2CCCCC2)[C@H]2[C@H](CC3=C[C@H](C1)OC3=O)OC(=O)[C@@H]2CSC(=S)N(C)C`, the IC50 in the experiment on A549 was 2.01 µM. On the same count and under the same terms, with `C/C1=C\[C@@H](OC(=O)SC2CCCCC2)[C@H]2[C@H](CC3=C[C@H](C1)OC3=O)OC(=O)[C@@H]2CSc1ccc(F)cc1` the figure was 3.94 µM. `C[C@@]12C[C@H]3C=C(C[C@@H]4OC(=O)[C@H](CSc5ccc(F)cc5)[C@H]4[C@H](OC(=O)C4CC4)[C@H]1O2)C(=O)O3`: the result in the experiment with NCI-H460 was inactive. For `C#CCNC(=O)O[C@@H]1/C=C(\C)C[C@H]2C=C(C[C@@H]3OC(=O)[C@H](CSC(=S)N(C)C)[C@H]31)C(=O)O2`, the IC50 with A549 was 1.76 µM. As for `C/C1=C\[C@@H](OC(=O)N2CCCC2)[C@H]2[C@H](CC3=C[C@H](C1)OC3=O)OC(=O)[C@@H]2CSc1ccc(F)cc1`, in the experiment on A549, the IC50 is 7.51 µM. In the case of `C#CCNC(=O)O[C@@H]1/C=C(\C)C[C@H]2C=C(C[C@@H]3OC(=O)[C@H](CSc4ccc(F)cc4)[C@H]31)C(=O)O2`, in the experiment on A549, the IC50 came out at 22.1 µM. On the same count and under the same terms, with `CCCCCSC(=O)O[C@@H]1/C=C(\C)C[C@H]2C=C(C[C@@H]3OC(=O)[C@H](CSc4ccc(F)cc4)[C@H]31)C(=O)O2` the figure was 10.7 µM.
